{
  "source": "paper PMC12957798",
  "about": "“Adaptation of plateau frog peptide: From antimicrobial to angiogenic and proliferative functions” (Journal of Advanced Research, 2025)",
  "key": {"[1]": {"system": "(p-Smad2/3)/(Smad2/3)", "assay": "Western blot p-Smad2/3 / Smad2/3 in HaCaT", "format": "cell-based, Human", "conditions": "SC17-2 20 μg/mL, 24 h (16 h elsewhere in the source), n = 3", "experimental": "(§1) HaCaT was inoculated in 12-well plates (2 × 10^5 cells/well) and cultured for 24 h. Afterwards, HaCaT cells were treated with equal amounts of VEGF, SC17-2, and PBS for 16 h. Cells were washed with PBS, after which the samples were collected and added to 1 mL of RIPA lysate containing protease inhibitors and phosphatase inhibitors and placed on ice for 30 min. Allowed to be after sufficient lysis, the supernatant was centrifuged and collected to determine the protein concentration using a nanodrop, followed by the addition of SDS sampling buffer and heating at 95 °C for 10 min. Samples were loaded and run on a gel block based on the determined sample concentration, and then electrotransferred onto a 0.45 μm PVDF membrane. […] After washing three times with TBST, proteins were visualised and scanned by enhanced chemiluminescence using the ChemiDoc XRS imaging system (Bio-Rad, Hercules, CA, USA)."}, "[2]": {"target": "T1, EGFR (Homo sapiens, UniProt P00533)", "assay": "Surface plasmon resonance (SPR)", "format": "binding", "experimental": "The analysis of biomolecular interactions was conducted utilising a Biacore S200 biosensor system (S200, Biacore, China). Briefly, the EGFR (20 μg/mL) was immobilised by amine coupling on the surface of a CM5 sensor chip (29104988, Cytiva, China) with a resonance unit (RU) of approximately 2000, using a sodium acetate buffer (10 mM, pH 4) as the immobilisation solution. In order to assess the affinity of SC17-2 for the epidermal EGFR, SC17-2 was injected at a flow rate of 30 μL/min onto a chip containing immobilised EGFR. The injection of SC17-2 was carried out at a flow rate of 30 μL/min at concentrations ranging from 5 to 500 μg/mL. The RU were recorded. The binding dissociation constants (KD) were determined using BiacoreTM Insight software."}, "[3]": {"target": "T1, EGFR", "assay": "Bio-Layer Interferometry (BLI)", "format": "binding", "experimental": "Prepare 20 μg/mL of EGFR protein solution (solvent 0.1 % PBS-Tween), and different concentrations of SC17-2 (5, 10, 20 μg/mL) dissolved using PBST. Biotin was added and incubated at room temperature for 30 min according to the instructions, and the corresponding probes were soaked in PBST for 10 min. The assay was carried out according to the BLI predefined procedure (Octet K2, ForteBio, USA), followed by calculations using the accompanying software, and graphpad was used for graphing."}, "[4]": {"system": "Transgenic zebrafish Tg (Fli1a:eGFP)", "assay": "Zebrafish VRI-induced vascular insufficiency model (ISV)", "format": "in vivo", "conditions": "VRI 300 ng/mL", "experimental": "Transgenic zebrafish Tg (Fli1a:eGFP) were cultured in culture tanks at 28 °C in a 14 h:10 h light/dark cycle for up to 6 months and subsequently made to produce zygotes by mating only, zebrafish larvae at 24 h post fertilisation (hpf) were induced for 3 h with a VEGFR tyrosine kinase inhibitor II (VRI) to produce a model of vascular insufficiency, after which they were washed to abort the effect of VRI was added to the same number of zebrafish of different groups with SC17-2 or equivalent amount of PBS, and images of zebrafish embryos were captured by Leica fluorescence microscopy, and the ISV index was calculated as follows: ISV index = intact blood vessels × 1 + defective blood vessels × 0.5."}, "[5]": {"assay": "Antioxidant activity (stated, no separate method)", "conditions": "no separate method or value printed"}, "[6]": {"assay": "Circular dichroism spectroscopy", "format": "physicochemical"}, "[7]": {"system": "HaCaT cells", "assay": "In vitro UVB damage repair (CCK-8)", "format": "cell-based, Human", "experimental": "HaCaT cells were inoculated in 24-well plates at 1 × 10^4 cells/well and incubated for 24 h to ensure uniformity and number of cells per well. Prior to UVB irradiation, cells were washed with phosphate buffer solution (PBS) and covered with 300 μL of PBS. The blank control group was wrapped through tinfoil to eliminate the effects caused by UVB irradiation and subsequently irradiated through […]. Immediately after irradiation, PBS was replaced with DMEM/F12 medium and 20 and 5 μg/mL of peptides SC17-2 were added, respectively, and incubated for 24 h. After that, 10 μL of CCK-8 was added to each well, and incubated for 2 h. The absorbance values of each well were measured at 450 nm."}, "[8]": {"system": "TGF-α mRNA", "assay": "qPCR TGF-α mRNA in HaCaT", "format": "cell-based, Human", "conditions": "SC17-2 20 μg/mL, n = 6", "experimental": "(§2) HaCaT cells were treated as above, washed twice with PBS and lysed using Trizol for 5 min, after which 200 μL of chloroform was added and shaken vigorously for 30 s. The cells were centrifuged for 15 min to separate the upper and lower layers (12,500 g, 4 °C). The supernatant was vortexed with an equal amount of isopropanol and left to stand for 10 min, and then centrifuged again under the same conditions to retain only the white precipitate. 500 μL of 75 % ethanol was added and centrifuged (12000 rpm, 4 °C, 10 min) and the operation was repeated twice. Afterwards, DEPC was used for dissolution and the concentration was determined by nanodrop. One-step reverse transcription to DNA was performed using 5 × MIX, after which primers and 2 × MIX were added and placed. qPCR was performed (LightCycler96, F. Hoffmann-La Roche, Swiss)."}, "[9]": {"system": "HUVEC cells", "assay": "In vitro wound healing (migration) assay, HUVEC", "format": "cell-based, Human", "conditions": "SC17-2 concentrations exceeding 10 μg/mL, 16 h"}, "[10]": {"system": "TGF-β", "assay": "Western blot TGF-β in HaCaT", "format": "cell-based, Human", "conditions": "SC17-2 20 μg/mL, 24 h (16 h elsewhere in the source), n = 3", "experimental": "as §1"}, "[11]": {"system": "TGF-β1 mRNA", "assay": "qPCR TGF-β1 mRNA in HaCaT", "format": "cell-based, Human", "conditions": "SC17-2, HaCaT", "experimental": "as §2"}},
  "data": [
    {"sequence": "SFMPLSIPIMCKMLSKC [SC17-2, peptide of the pleskein family from the skin transcriptome of the frog Nanorana parkeri, made by solid-phase synthesis]", "values": [
      {"measurement": "Smad2/3 phosphorylation", "setting": "[1]", "result": "significantly increased Smad2/3 phosphorylation"},
      {"measurement": "EGFR binding, dose dependence", "setting": "[2]", "result": "binds in a dose-dependent manner"},
      {"measurement": "EGFR binding, dose dependence", "setting": "[3]", "result": "binds in a dose-dependent manner"},
      {"measurement": "ISVs restored, relative to healthy zebrafish", "setting": "[4]; SC17-2 20 μg/mL, 24 h, n = 6", "result": 84.18, "unit": "%"},
      {"measurement": "number of ISV, dose dependence", "setting": "[4]; SC17-2 5, 10, 20 μg/mL, 24 h post-treatment", "result": "significant increase in the number of ISV in a dose-dependent manner"},
      {"measurement": "antioxidant activity", "setting": "[5]", "result": "demonstrated antioxidant activity"},
      {"measurement": "secondary structure composition", "setting": "[6]; 0 mM (H2O) and 60 mM SDS", "result": "primarily of random coil and β-sheet structures, with only trace amounts of γ-turn and α-helix structures"},
      {"measurement": "secondary structure, change with SDS", "setting": "[6]; 0 mM (H2O) vs 60 mM SDS", "result": "remained largely unchanged"},
      {"measurement": "UVB damage repair compared with non-irradiated group", "setting": "[7]; SC17-2 20 μg/mL vs group not irradiated", "result": "considerably less pronounced"},
      {"measurement": "attenuation of UVB-induced damage", "setting": "[7]; SC17-2 20 μg/mL, 24 h after 5 J/cm UVB, CCK-8, vs saline after irradiation", "result": "capable of effectively removing the damage caused by UVB radiation"},
      {"measurement": "attenuation of cell injuries after UVB irradiation", "setting": "[7]; SC17-2 20 and 5 μg/mL, 24 h, CCK-8, n = 3", "result": "could attenuate the cell injuries"},
      {"measurement": "mRNA expression of TGF-α", "setting": "[8]", "result": "significantly elevated"},
      {"measurement": "HUVEC migration", "setting": "[9]", "result": "notable enhancement"},
      {"measurement": "expression of TGF-β", "setting": "[10]", "result": "significantly increase the expression of TGF-β"},
      {"measurement": "TGF-β1 expression (qPCR)", "setting": "[11]", "result": "simultaneous increase"}
    ]}
  ]
}
